Experimental data: PubChem BioAssay AID248 (DTP/NCI, 2004)
Values joined by “and” are separate entries in the source; they are usually repeats but may differ in a detail not shown here. Equal entries are not always repeated. Inconclusive results and toxic doses are left out. No stated cut-off is given here; in the data, active means T/C of 150% or more; inactive means T/C below 125%.

Test system: L1210 leukemia ip in BDF1 mice, survival T/C
Experiment: NCI In Vivo Anticancer Drug Screen. Data for tumor model L1210 Leukemia (intraperitoneal) in B6D2F1 (BDF1) mice
Conditions: endpoint: mean survival time, higher = longer survival
Method in brief: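 Tumor was transplanted into mice, which were then dosed with test compound or vehicle alone. Survival was recorded for each group, and the treated figure was expressed relative to the control figure.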

[1] = dose: 100.0 mg/kg/injection, schedule: Q04DX002 (ip), vehicle: Klucel (hydroxypropylcellulose) (HPC)
[2] = dose: 200.0 mg/kg/injection, schedule: Q04DX002 (ip), vehicle: Klucel (hydroxypropylcellulose) (HPC)
[3] = dose: 400.0 mg/kg/injection, schedule: Q04DX002 (ip), vehicle: Klucel (hydroxypropylcellulose) (HPC)
[4] = dose: 100.0 mg/kg/injection, schedule: Q04DX003 (ip), vehicle: saline with Tween-80
[5] = dose: 25.0 mg/kg/injection, schedule: Q04DX003 (ip), vehicle: saline with Tween-80
[6] = dose: 50.0 mg/kg/injection, schedule: Q01DX001 (ip), vehicle: saline
[7] = dose: 100.0 mg/kg/injection, schedule: Q01DX001 (ip), vehicle: saline
[8] = dose: 200.0 mg/kg/injection, schedule: Q01DX001 (ip), vehicle: saline
[9] = dose: 400.0 mg/kg/injection, schedule: Q01DX001 (ip), vehicle: saline
[10] = dose: 100.0 mg/kg/injection, schedule: Q01DX009 (ip), vehicle: Klucel (hydroxypropylcellulose) (HPC)
[11] = dose: 100.0 mg/kg/injection, schedule: Q04DX003 (ip), vehicle: Klucel (hydroxypropylcellulose) (HPC)
[12] = dose: 200.0 mg/kg/injection, schedule: Q01DX009 (ip), vehicle: Klucel (hydroxypropylcellulose) (HPC)
[13] = dose: 200.0 mg/kg/injection, schedule: Q04DX003 (ip), vehicle: Klucel (hydroxypropylcellulose) (HPC)
[14] = dose: 400.0 mg/kg/injection, schedule: Q01DX009 (ip), vehicle: Klucel (hydroxypropylcellulose) (HPC)
[15] = dose: 400.0 mg/kg/injection, schedule: Q04DX003 (ip), vehicle: Klucel (hydroxypropylcellulose) (HPC)

Measured: T/C

Cc1ccccc1Nc1nc(N)nc2nc(N)c(C(N)=O)nc12
inactive: [1] 97 % of control | [2] 92 % of control | [3] 92 % of control

O=C(O)c1ccccc1C(=O)N1CCCC1
inactive: [1] 96 % of control | [2] 86 % of control | [3] 93 % of control

CCC(C(=O)c1ccc(F)cc1)C(O)(C(F)(F)F)C(F)(F)F (stereo not given)
inactive: [4] 104 % of control | dose: 200.0 mg/kg/injection, schedule: Q04DX003 (ip), vehicle: saline with Tween-80 103 % of control | dose: 400.0 mg/kg/injection, schedule: Q04DX003 (ip), vehicle: saline with Tween-80 101 % of control

C(=NCC(CCN1CCOCC1)(CCN1CCOCC1)c1cccc2ccccc12)C(CCN1CCOCC1)(CCN1CCOCC1)c1cccc2ccccc12
inactive: [5] 90 % of control | dose: 50.0 mg/kg/injection, schedule: Q04DX003 (ip), vehicle: saline with Tween-80 100 % of control | [4] 89 % of control

C1=CC(=P(c2ccccc2)(c2ccccc2)c2ccccc2)C=C1
inactive: dose: 30.0 mg/kg/injection, schedule: Q01DX015 (ip), vehicle: saline 95 % of control | [6] 92 % of control | dose: 60.0 mg/kg/injection, schedule: Q01DX015 (ip), vehicle: saline 89 % of control | [7] 97 % of control | dose: 120.0 mg/kg/injection, schedule: Q01DX015 (ip), vehicle: saline 91 % of control | [8] 98 % of control | dose: 240.0 mg/kg/injection, schedule: Q01DX015 (ip), vehicle: saline 91 % of control | [9] 97 % of control

O=C(OC(=O)C1CC1)C1CC1
inactive: dose: 12.5 mg/kg/injection, schedule: Q01DX009 (ip), vehicle: saline 96 % of control | dose: 25.0 mg/kg/injection, schedule: Q01DX009 (ip), vehicle: saline 92 % of control | dose: 25.0 mg/kg/injection, schedule: Q04DX003 (ip), vehicle: saline 90 % of control | dose: 50.0 mg/kg/injection, schedule: Q01DX009 (ip), vehicle: saline 96 % of control and 111 % of control | dose: 50.0 mg/kg/injection, schedule: Q04DX003 (ip), vehicle: saline 88 % of control | dose: 100.0 mg/kg/injection, schedule: Q04DX003 (ip), vehicle: saline 96 % of control and 101 % of control

c1ccc(N2CCN(c3ccccc3)CC2)cc1
inactive: dose: 100.0 mg/kg/injection, schedule: Q01DX009 (ip), vehicle: saline with Tween-80 98 % of control | dose: 200.0 mg/kg/injection, schedule: Q01DX009 (ip), vehicle: saline with Tween-80 86 % of control

O=c1nc2n(c(=O)[nH]1)CCN2
inactive: dose: 50.0 mg/kg/injection, schedule: Q01DX001 (ip), vehicle: carboxymethylcellulose (CMC) 101 % of control | dose: 100.0 mg/kg/injection, schedule: Q01DX001 (ip), vehicle: carboxymethylcellulose (CMC) 101 % of control | dose: 200.0 mg/kg/injection, schedule: Q01DX001 (ip), vehicle: carboxymethylcellulose (CMC) 104 % of control | dose: 400.0 mg/kg/injection, schedule: Q01DX001 (ip), vehicle: carboxymethylcellulose (CMC) 106 % of control

Cc1ccc(Oc2ccc3c(c2)CN(C)CC3)cc1
inactive: [1] 97 % of control | [2] 102 % of control | [3] 91 % of control

Cc1cccc(C)c1NC(=O)Nc1ccc(Cl)c(Cl)c1
inactive: [10] 97 % of control | [11] 95 % of control | [12] 94 % of control | [13] 86 % of control | [14] 94 % of control | [15] 91 % of control

O=C(CCCC(=O)NNC(=O)Nc1cccc(S(=O)(=O)F)c1)NNC(=O)Nc1cccc(S(=O)(=O)F)c1
inactive: [6] 106 % of control | [7] 112 % of control | [8] 96 % of control | [9] 112 % of control

O=C(Nc1cccc2ccccc12)OCCF
inactive: dose: 5.0 mg/kg/injection, schedule: Q01DX001 (ip), vehicle: carboxymethylcellulose (CMC) 101 % of control | dose: 10.0 mg/kg/injection, schedule: Q01DX001 (ip), vehicle: carboxymethylcellulose (CMC) 106 % of control | dose: 20.0 mg/kg/injection, schedule: Q01DX001 (ip), vehicle: carboxymethylcellulose (CMC) 104 % of control | dose: 40.0 mg/kg/injection, schedule: Q01DX001 (ip), vehicle: carboxymethylcellulose (CMC) 104 % of control | dose: 80.0 mg/kg/injection, schedule: Q01DX001 (ip), vehicle: carboxymethylcellulose (CMC) 106 % of control

S=c1nc[nH]c2ccccc12
inactive: [10] 93 % of control | [11] 91 % of control | [12] 95 % of control | [13] 94 % of control | [14] 88 % of control | [15] 98 % of control

N#Cc1cccc(C(Br)S(=O)(=O)c2ccccc2)c1 (stereo not given)
inactive: [1] 116 % of control | [2] 111 % of control | [3] 90 % of control

NC(N)=N/N=C(/c1ccccc1)c1ccc(N)cc1
inactive: dose: 3.5 mg/kg/injection, schedule: Q01DX Z (oral), vehicle: carboxymethylcellulose (CMC) 102 % of control | dose: 75.0 mg/kg/injection, schedule: Q01DX Z (oral), vehicle: carboxymethylcellulose (CMC) 102 % of control | dose: 150.0 mg/kg/injection, schedule: Q01DX Z (oral), vehicle: carboxymethylcellulose (CMC) 98 % of control | dose: 300.0 mg/kg/injection, schedule: Q01DX Z (oral), vehicle: carboxymethylcellulose (CMC) 104 % of control

CN(C)C(=S)S
inactive: [6] 100 % of control | dose: 50.0 mg/kg/injection, schedule: Q04DX002 (ip), vehicle: Klucel (hydroxypropylcellulose) (HPC) 103 % of control | [7] 100 % of control | [1] 103 % of control | [8] 100 % of control | [2] 100 % of control | [9] 100 % of control | [3] 96 % of control

Nc1ncnc2nc[nH]c12.[Tl]
inactive: dose: 3.12 mg/kg/injection, schedule: Q01DX009 (ip), vehicle: water 95 % of control | dose: 3.12 mg/kg/injection, schedule: Q04DX003 (ip), vehicle: water 103 % of control | dose: 6.25 mg/kg/injection, schedule: Q01DX009 (ip), vehicle: water 95 % of control | dose: 6.25 mg/kg/injection, schedule: Q04DX003 (ip), vehicle: water 108 % of control | dose: 12.5 mg/kg/injection, schedule: Q04DX003 (ip), vehicle: water 105 % of control

CN(C)CC(C(=O)c1ccc(Br)cc1)C(Br)c1ccccc1 (stereo not given)
inactive: dose: 0.78 mg/kg/injection, schedule: Q01DX009 (ip), vehicle: saline 94 % of control | dose: 1.56 mg/kg/injection, schedule: Q01DX009 (ip), vehicle: saline 92 % of control | dose: 3.12 mg/kg/injection, schedule: Q01DX009 (ip), vehicle: saline 97 % of control | dose: 12.5 mg/kg/injection, schedule: Q04DX003 (ip), vehicle: saline with Tween-80 95 % of control | [5] 91 % of control

O=C(CCCCCCCCC(=O)NCCBr)NCCBr
inactive: dose: 100.0 mg/kg/injection, schedule: Q01DX005 (ip), vehicle: Klucel (hydroxypropylcellulose) (HPC) 98 % of control | [1] 104 % of control | dose: 200.0 mg/kg/injection, schedule: Q01DX005 (ip), vehicle: Klucel (hydroxypropylcellulose) (HPC) 94 % of control | [2] 101 % of control | dose: 400.0 mg/kg/injection, schedule: Q01DX005 (ip), vehicle: Klucel (hydroxypropylcellulose) (HPC) 102 % of control | [3] 101 % of control

Cc1cc(Cl)ccc1OC(=O)Nc1cccc(Cl)c1Cl
inactive: [10] 102 % of control | [12] 89 % of control | [14] 94 % of control
